ChEMBL document CHEMBL5370549, “Optimization and evaluation of pyridinyl vinyl sulfones as Nrf2 activator for the antioxidant and anti-inflammatory effects” (Eur J Med Chem, 2023)
The source made the active and inactive calls. The calls are words filed in the database; no cut-off is given here.

How the values were obtained:
BV-2 [1] = experiment: Antiinflammatory activity against LPS-induced mouse BV-2 cells assessed as inhibition of IL-6 mRNA expression at 0.03 to 3 uM pretreated for 6 hrs followed by LPS stimulation for 6 hrs by qRT-PCR analysis; assay type: functional, cell-based; conditions: dose 0.03-3 µM, time 12.0 hrs
[2] = target: T1, Nuclear factor erythroid 2-related factor 2 (Mus musculus) (UniProt Q60795); experiment: Activation of Nrf2 in mouse BV-2 cells assessed as increase in Nrf2 nuclear translocation at 3 uM measured upto 9 hrs by immunoblot analysis relative to control; assay type: subcellular; conditions: Nucleus
T1 sequence (whole entry): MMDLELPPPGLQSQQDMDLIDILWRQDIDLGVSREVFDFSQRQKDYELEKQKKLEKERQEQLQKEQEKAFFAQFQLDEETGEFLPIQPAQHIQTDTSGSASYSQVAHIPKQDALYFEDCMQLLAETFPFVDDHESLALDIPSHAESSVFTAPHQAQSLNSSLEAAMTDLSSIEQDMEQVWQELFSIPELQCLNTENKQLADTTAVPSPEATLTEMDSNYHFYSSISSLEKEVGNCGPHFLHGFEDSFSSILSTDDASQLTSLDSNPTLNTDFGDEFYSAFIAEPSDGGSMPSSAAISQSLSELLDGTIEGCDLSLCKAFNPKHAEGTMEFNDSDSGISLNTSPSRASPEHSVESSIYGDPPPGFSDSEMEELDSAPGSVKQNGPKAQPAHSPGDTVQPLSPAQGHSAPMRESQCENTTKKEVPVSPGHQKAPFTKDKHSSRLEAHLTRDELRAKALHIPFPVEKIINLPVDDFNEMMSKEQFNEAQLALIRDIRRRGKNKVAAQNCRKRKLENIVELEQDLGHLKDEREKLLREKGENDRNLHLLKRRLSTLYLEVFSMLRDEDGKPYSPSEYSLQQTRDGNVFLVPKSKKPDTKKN

[3] = target: T1, Nuclear factor erythroid 2-related factor 2 (Mus musculus); experiment: Activation of Nrf2 in mouse BV-2 cells assessed as increase in HO-1 mRNA expression incubated for 3 hrs by qRT-PCR analysis; assay type: cell-based; conditions: filed as activator, dose 0.01-3 µM
CYP2C9 = CYP2C9 (Homo sapiens, UniProt P11712); experiment: Inhibition of CYP2C9 (unknown origin) assessed as enzyme activity at 10 uM relative to control; assay type: ADME; design: scale not given: the % may be the effect or the level left; conditions: read-out: Activity
CYP2C19 = CYP2C19 (Homo sapiens, UniProt P33261); experiment: Inhibition of CYP2C19 (unknown origin) assessed as enzyme activity at 10 uM relative to control; assay type: ADME; design: scale not given: the % may be the effect or the level left; conditions: read-out: Activity
Mus musculus [4] = experiment: (§1) Antiinflammatory activity against LPS-induced neuroinflammation C57BL/6N mouse model assessed as reduction of glial cell reactivity by measuring reduction in GFAP expression in cortex at 20 mg/kg/day, po administered for 3 days followed by LPS administration for 7 days by immunofluorescence staining based analysis; assay type: functional, organism-based; conditions: time 10.0 day
BV-2 [5] = experiment: Antiinflammatory activity against LPS-induced mouse BV-2 cells assessed as inhibition of IL-1 beta mRNA expression at 0.1 to 3 uM pretreated for 6 hrs followed by LPS stimulation for 6 hrs by qRT-PCR analysis; assay type: functional, cell-based; conditions: dose 0.1-3 µM, time 12.0 hrs
[6] = target: T1, Nuclear factor erythroid 2-related factor 2 (Mus musculus); experiment: Activation of Nrf2 in mouse BV-2 cells assessed as increase in Nrf2 level in whole cell lysates measured after 3 hrs by immunoblot analysis; assay type: subcellular; conditions: filed as activator, dose 0.01-3 µM
[7] = target: T1, Nuclear factor erythroid 2-related factor 2 (Mus musculus); experiment: Activation of Nrf2 in mouse BV-2 cells assessed as increase in Nrf2 level in whole cell lysates at 3 uM measured after 3 hrs by immunoblot analysis; assay type: subcellular; conditions: filed as activator
BV-2 [8] = experiment: Cytotoxicity against mouse BV-2 cells assessed as effect on cell viability upto 3 uM incubated for 24 hrs by WST assay; assay type: toxicity, cell-based; conditions: bv-2, 24 h
CYP1A2 = target: T2, CYP1A2 (Homo sapiens, UniProt P05177); experiment: Inhibition of CYP1A2 (unknown origin) assessed as enzyme activity at 10 uM relative to control; assay type: ADME; design: scale not given: the % may be the effect or the level left; conditions: read-out: Activity
T2 sequence (P05177 whole entry): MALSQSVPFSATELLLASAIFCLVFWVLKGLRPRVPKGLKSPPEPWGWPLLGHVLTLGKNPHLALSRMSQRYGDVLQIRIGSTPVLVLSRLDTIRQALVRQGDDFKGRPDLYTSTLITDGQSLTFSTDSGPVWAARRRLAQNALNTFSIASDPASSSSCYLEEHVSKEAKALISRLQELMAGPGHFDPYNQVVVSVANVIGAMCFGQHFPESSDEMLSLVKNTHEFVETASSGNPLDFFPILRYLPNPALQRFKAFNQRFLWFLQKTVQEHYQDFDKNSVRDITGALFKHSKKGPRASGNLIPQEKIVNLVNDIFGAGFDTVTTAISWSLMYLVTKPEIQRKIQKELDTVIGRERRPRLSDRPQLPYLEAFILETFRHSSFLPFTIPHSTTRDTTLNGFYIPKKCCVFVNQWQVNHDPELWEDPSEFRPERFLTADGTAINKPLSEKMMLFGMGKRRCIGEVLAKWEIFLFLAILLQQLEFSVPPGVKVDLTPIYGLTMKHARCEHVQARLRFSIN

BV-2 [9] = experiment: Antiinflammatory activity against LPS-induced mouse BV-2 cells assessed as inhibition of iNOS protein expression pretreated for 6 hrs followed by LPS stimulation for 24 hrs by immunoblot analysis; assay type: functional, cell-based; conditions: dose 0.001-1 µM, time 30.0 hrs
[10] = target: T1, Nuclear factor erythroid 2-related factor 2 (Mus musculus); experiment: Activation of Nrf2 in mouse BV-2 cells assessed as increase in Gclm mRNA expression incubated for 3 hrs by qRT-PCR analysis; assay type: cell-based; conditions: filed as activator, dose 0.01-3 µM
[11] = target: T1, Nuclear factor erythroid 2-related factor 2 (Mus musculus); experiment: Activation of Nrf2 in mouse BV-2 cells assessed as increase in Nrf2 level in whole cell lysates at 3 uM measured after 48 hrs by immunoblot analysis; assay type: subcellular
Mus musculus [12] = experiment: Antiinflammatory activity against LPS-induced neuroinflammation C57BL/6N mouse model assessed as inhibition of TNF-alpha production in plasma at 20 mg/kg/day, po administered for 3 days followed by LPS administration for 7 days by ELISA; assay type: functional, organism-based; conditions: time 10.0 day
[13] = Toxicity against C57BL/6N mouse at 1000 mg/kg, po administered as single dose; assay type: organism-based; conditions: in vivo
Mus musculus [14] = experiment: as §1, with “IBA1” for “GFAP”, “hippocampus CA1 region” for “cortex”; assay type: functional, organism-based; conditions: time 10.0 day
CYP3A4 = CYP3A4 (Homo sapiens, UniProt P08684); experiment: Inhibition of CYP3A4 (unknown origin) assessed as enzyme activity at 10 uM relative to control; assay type: ADME; design: scale not given: the % may be the effect or the level left; conditions: read-out: Activity
BV-2 [15] = experiment: Antiinflammatory activity against LPS-induced mouse BV-2 cells assessed as inhibition of NO production at 0.001 to 1 uM pretreated for 6 hrs followed by LPS stimulation for 24 hrs by Griess assay; assay type: functional, cell-based; conditions: dose 0.001-1 µM, time 30.0 hrs
[16] = Metabolic stability of the compound in mouse liver microsomes assessed as parent compound remaining measured after 30 mins; assay type: ADME, Microsome; conditions: read-out: Stability
Mus musculus [17] = experiment: as §1, with “IBA1” for “GFAP”; assay type: functional, organism-based; conditions: time 10.0 day
[18] = Metabolic stability of the compound in rat plasma assessed as parent compound remaining measured after 30 mins; assay type: ADME, cell-free; conditions: read-out: Stability
[19] = target: T1, Nuclear factor erythroid 2-related factor 2 (Mus musculus); experiment: Activation of Nrf2 in mouse BV-2 cells assessed as increase in GCLM protein expression measured after 12 hrs by immunoblot analysis; assay type: cell-based; conditions: filed as activator, dose 0.01-3 µM
[20] = target: T1, Nuclear factor erythroid 2-related factor 2 (Mus musculus); experiment: Activation of Nrf2 in mouse BV-2 cells assessed as increase in HO-1 protein expression measured after 9 hrs by immunoblot analysis; assay type: cell-based; conditions: filed as activator, dose 0.01-3 µM

CYP2C9, sequence (P11712 whole entry): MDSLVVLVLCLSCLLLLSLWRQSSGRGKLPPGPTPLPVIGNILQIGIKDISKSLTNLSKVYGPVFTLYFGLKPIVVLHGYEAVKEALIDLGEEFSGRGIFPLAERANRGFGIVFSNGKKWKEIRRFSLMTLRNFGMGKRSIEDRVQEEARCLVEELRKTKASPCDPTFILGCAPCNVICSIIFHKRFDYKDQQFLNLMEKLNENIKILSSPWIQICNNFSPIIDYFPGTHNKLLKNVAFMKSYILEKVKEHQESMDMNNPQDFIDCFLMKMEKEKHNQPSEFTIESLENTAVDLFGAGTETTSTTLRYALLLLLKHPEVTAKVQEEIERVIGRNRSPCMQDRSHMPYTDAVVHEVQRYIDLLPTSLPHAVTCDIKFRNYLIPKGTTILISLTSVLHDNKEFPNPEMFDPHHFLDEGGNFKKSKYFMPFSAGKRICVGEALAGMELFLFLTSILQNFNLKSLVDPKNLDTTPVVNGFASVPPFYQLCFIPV
CYP3A4, sequence (P08684 whole entry): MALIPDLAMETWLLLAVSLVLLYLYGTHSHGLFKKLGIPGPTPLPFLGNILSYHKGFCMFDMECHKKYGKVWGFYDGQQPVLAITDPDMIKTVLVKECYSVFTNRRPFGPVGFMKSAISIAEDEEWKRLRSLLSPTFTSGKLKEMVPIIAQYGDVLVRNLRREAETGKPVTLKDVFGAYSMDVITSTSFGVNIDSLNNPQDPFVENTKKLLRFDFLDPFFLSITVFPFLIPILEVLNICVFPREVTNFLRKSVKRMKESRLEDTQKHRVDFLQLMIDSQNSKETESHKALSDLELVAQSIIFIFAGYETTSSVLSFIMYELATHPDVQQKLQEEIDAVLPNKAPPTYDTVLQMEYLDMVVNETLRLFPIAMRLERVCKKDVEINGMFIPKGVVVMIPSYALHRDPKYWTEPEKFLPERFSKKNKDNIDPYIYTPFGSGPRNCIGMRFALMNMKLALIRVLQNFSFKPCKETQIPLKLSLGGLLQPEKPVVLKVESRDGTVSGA
CYP2C19, sequence (P33261 whole entry): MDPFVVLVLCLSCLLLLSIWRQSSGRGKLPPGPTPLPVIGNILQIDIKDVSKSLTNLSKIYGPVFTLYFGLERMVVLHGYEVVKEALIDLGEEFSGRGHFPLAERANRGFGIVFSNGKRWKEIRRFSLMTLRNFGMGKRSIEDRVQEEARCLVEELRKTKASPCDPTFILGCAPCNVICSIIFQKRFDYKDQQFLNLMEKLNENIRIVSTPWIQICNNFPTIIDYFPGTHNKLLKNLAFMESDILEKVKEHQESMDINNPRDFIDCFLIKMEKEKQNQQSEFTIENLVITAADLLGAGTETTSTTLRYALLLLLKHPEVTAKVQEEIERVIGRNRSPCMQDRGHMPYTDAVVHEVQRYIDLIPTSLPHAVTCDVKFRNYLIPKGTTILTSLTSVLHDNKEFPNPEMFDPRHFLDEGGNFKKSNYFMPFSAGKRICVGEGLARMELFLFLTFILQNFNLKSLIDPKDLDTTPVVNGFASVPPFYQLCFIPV

Q: Which results are given for `COc1cccnc1S(=O)(=O)/C=C/c1ncccc1Cl`?
A: Activity (BV-2 [1]): Active; fold change (FC) [2]: > 7; Activity [3]: Dose-Dependent Effect; activity at 10 µM (CYP2C9): > 99%; activity at 10 µM (CYP2C19): 74.7%; Activity (Mus musculus [4]): Active; Activity (BV-2 [5]): Active; Activity [6]: Dose-Dependent Effect; Activity [7]: Active; Activity (BV-2 [8]): Non-Toxic; activity at 10 µM (CYP1A2): 84.9%; Activity (BV-2 [9]): Dose-Dependent Effect; Activity [10]: Dose-Dependent Effect; Activity [11]: inactive; Activity (Mus musculus [12]): Active; Activity [13]: Non-Toxic; Activity (Mus musculus [14]): Active; activity at 10 µM (CYP3A4): 77.1%; Activity (BV-2 [15]): Active; remaining at 0.5 h [16]: 61%; Activity (Mus musculus [17]): Active; remaining at 0.5 h [18]: 74.4%; Activity [19]: Dose-Dependent Effect; Activity [20]: Dose-Dependent Effect
